These results are taken from ChEMBL document CHEMBL1201862, “PubChem BioAssay data set” (2004).

Molecules are shown by their SMILES.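 The compound was tested at five concentrations on cells cultured in 96-well plates, with a 48-hour exposure period. GI50 = concentration required for 50% inhibition of growth.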 The source made the active and inactive calls. Rule as the data show it: active = GI50 up to about 1.1 µM and inactive = higher. A value given as a limit tells only on which side of the number the result lay.

Among the test systems are UACC-257; SF-539; TK-10; NCI-H226; OVCAR-5; T47D; NCI/ADR-RES; MDA-MB-435; SF-268; EKVX; HOP-92; SNB-75; MOLT-4; BT-549; K562; SK-OV-3; COLO 205; RXF 393; MDA-MB-231; SK-MEL-5.
Common to all, as to assay: NCI tumour cell line growth inhibition, 48 h

Take `O=c1nc2n(CCO)c(-c3ccccc3)c(-c3ccccc3)nc-2c(=O)[nH]1`: the GI50 in the experiment on UACC-257, in the experiment with SF-539, in the experiment on TK-10, with NCI-H226, in the experiment with OVCAR-5 and in the experiment with T47D was > 100 µM (inactive) throughout. Further, the GI50 in the experiment with NCI/ADR-RES was > 100 µM (inactive); in the experiment on MDA-MB-435 it was > 100 µM (inactive); in the experiment on SF-268, > 100 µM (inactive); with EKVX, > 100 µM (inactive); with HOP-92 it was 88.9 µM (inactive); with SNB-75, > 100 µM (inactive). The GI50 with MOLT-4, in the experiment with BT-549, with K562, in the experiment on SK-OV-3, in the experiment with COLO 205 and in the experiment on RXF 393 was > 100 µM (inactive) each time. For the same compound, the GI50 in the experiment on MDA-MB-231 and in the experiment on SK-MEL-5 was > 100 µM (inactive) each time.

On to `c1ccc2[nH]c(C3CCCCO3)nc2c1` (stereo not given), for which the GI50 with UACC-257 is > 100 µM (inactive); in the experiment on SF-539, > 100 µM (inactive); in the experiment on TK-10, > 100 µM (inactive); in the experiment on NCI-H226, 6.41 µM (inactive); in the experiment with OVCAR-5 it was > 100 µM (inactive); in the experiment with T47D it was > 100 µM (inactive). The GI50 in the experiment with NCI/ADR-RES, in the experiment on MDA-MB-435, in the experiment with SF-268, in the experiment on EKVX, in the experiment on HOP-92 and in the experiment on SNB-75 was > 100 µM (inactive) in each case. The GI50 in the experiment on MOLT-4, in the experiment with BT-549, in the experiment on K562, in the experiment on SK-OV-3, in the experiment on COLO 205 and in the experiment with RXF 393 was > 100 µM (inactive) in each case. In addition, the GI50 in the experiment with MDA-MB-231 and in the experiment on SK-MEL-5 was > 100 µM (inactive) in each case.

For the compound `Cc1cn(C2CC(O)C(CO)O2)c(=O)[nH]c1=O` (stereo not given), the GI50 in the experiment with UACC-257 was 3760 µM (inactive); in the experiment with SF-539, 3670 µM (inactive); in the experiment on TK-10, > 5000 µM (inactive); in the experiment with NCI-H226, 3780 µM (inactive); in the experiment on OVCAR-5, 4060 µM (inactive); in the experiment with T47D, > 4080 µM (inactive). Also, the GI50 with NCI/ADR-RES was 2260 µM (inactive); in the experiment with MDA-MB-435, 4940 µM (inactive); in the experiment with SF-268 it was 2280 µM (inactive); in the experiment with EKVX it was 2380 µM (inactive); with HOP-92, 3020 µM (inactive); in the experiment on SNB-75 it was 3630 µM (inactive). The GI50 in the experiment on MOLT-4 was 386 µM (inactive); in the experiment on BT-549 it was > 5000 µM (inactive); with K562, 1540 µM (inactive); with SK-OV-3, 2480 µM (inactive); in the experiment on COLO 205 it was 3090 µM (inactive); in the experiment on RXF 393, 2510 µM (inactive). Besides, the GI50 is > 3520 µM (inactive) with MDA-MB-231 and 4450 µM (inactive) in the experiment on SK-MEL-5.

As to `CCCC(=O)NC(Nc1ccc(S(=O)(=O)Nc2cc(C)on2)cc1)(C(=O)OCC)C(F)(F)F` (stereo not given), the GI50 in the experiment on UACC-257, in the experiment with SF-539, with TK-10, with NCI-H226, with OVCAR-5 and in the experiment with T47D was > 100 µM (inactive) throughout. Moreover, the GI50 in the experiment with NCI/ADR-RES, with MDA-MB-435, with SF-268, in the experiment on EKVX, with HOP-92 and in the experiment on SNB-75 was > 100 µM (inactive) in each case. Moreover, the GI50 with MOLT-4 is 55.3 µM (inactive); with BT-549 it was > 100 µM (inactive); in the experiment with K562 it was > 100 µM (inactive); in the experiment on SK-OV-3, > 100 µM (inactive); in the experiment with COLO 205, > 100 µM (inactive); with RXF 393 it was > 100 µM (inactive). Further, the GI50 with MDA-MB-231 and in the experiment on SK-MEL-5 was > 100 µM (inactive) throughout.

`CC1(C)CC2(C)ON=C(c3ccccc3)N2c2ccccc2N1` (stereo not given): the GI50 is 24.4 µM (inactive) in the experiment with UACC-257; 19.5 µM (inactive) in the experiment with SF-539; 39.4 µM (inactive) in the experiment on TK-10; 17.3 µM (inactive) with NCI-H226; 46.9 µM (inactive) in the experiment on OVCAR-5; 21.9 µM (inactive) with T47D. The GI50 was 23.4 µM (inactive) with NCI/ADR-RES; 19.8 µM (inactive) with MDA-MB-435; 22.1 µM (inactive) in the experiment with SF-268; 24 µM (inactive) in the experiment on EKVX; 21.6 µM (inactive) in the experiment on HOP-92; 23.9 µM (inactive) with SNB-75. In addition, the GI50 was 21.6 µM (inactive) in the experiment with MOLT-4; 17.8 µM (inactive) in the experiment on BT-549; 19.8 µM (inactive) in the experiment on K562; 21.7 µM (inactive) in the experiment on SK-OV-3; 19.5 µM (inactive) in the experiment on COLO 205; 20.8 µM (inactive) with RXF 393. Also, the figures for the GI50 in the experiment with MDA-MB-231 and in the experiment on SK-MEL-5 were 14.4 µM (inactive) and 16.7 µM (inactive), respectively.

For the compound `CC(=O)OC1CC2C(C)(C)C(=O)C=CC2(C)C2CCC3(C)C(c4ccoc4)OC(=O)C4OC43C12C` (stereo not given), the GI50 in the experiment with UACC-257 is 15.9 µM (inactive); with SF-539, 6.55 µM (inactive); in the experiment with TK-10, 95.1 µM (inactive); in the experiment with NCI-H226, 22.2 µM (inactive); with OVCAR-5, 19.7 µM (inactive); with T47D, 12.5 µM (inactive). The GI50 with NCI/ADR-RES was 5.32 µM (inactive); in the experiment with MDA-MB-435, 3.27 µM (inactive); in the experiment with SF-268, 28.5 µM (inactive); in the experiment on EKVX, 22.5 µM (inactive); in the experiment with HOP-92 it was 14.5 µM (inactive); with SNB-75, > 100 µM (inactive). For the same compound, the GI50 with MOLT-4 is 8.2 µM (inactive); in the experiment with BT-549, 5.77 µM (inactive); in the experiment with K562, 3.54 µM (inactive); in the experiment with SK-OV-3, 7.71 µM (inactive); with COLO 205 it was 7.5 µM (inactive); in the experiment with RXF 393, 4.66 µM (inactive). The figures for the GI50 in the experiment with MDA-MB-231 and in the experiment on SK-MEL-5 were 3.85 µM (inactive) and 5.62 µM (inactive), respectively.

In the case of `CCCCCCCCCC[S+]([O-])CC(CO)NC(=O)/C=C/c1c(C)nc(O)nc1O` (stereo not given), the GI50 is 1.33 µM (inactive) with UACC-257; 0.484 µM (active) in the experiment with SF-539; 1.76 µM (inactive) in the experiment on TK-10; 0.8 µM (active) in the experiment on NCI-H226; 1.71 µM (inactive) in the experiment on OVCAR-5; 20.8 µM (inactive) in the experiment on T47D. For the same compound, the GI50 in the experiment with NCI/ADR-RES is 4.43 µM (inactive); in the experiment with MDA-MB-435, 14 µM (inactive); in the experiment on SF-268, 0.149 µM (active); in the experiment on EKVX, 0.774 µM (active); in the experiment on HOP-92, 0.189 µM (active); in the experiment on SNB-75 it was 0.272 µM (active). The GI50 is 0.518 µM (active) with MOLT-4; 10.5 µM (inactive) with BT-549; 0.501 µM (active) in the experiment on K562; 1.38 µM (inactive) in the experiment on SK-OV-3; 0.247 µM (active) in the experiment on COLO 205; 0.474 µM (active) in the experiment on RXF 393. Besides, the GI50 in the experiment with MDA-MB-231 was 2.97 µM (inactive); in the experiment on SK-MEL-5, 0.918 µM (active).

As for `N#Cc1c(NC(=S)NCc2ccccc2)sc2c1CCN(N1CCc3c(sc(NC(=S)NCc4ccccc4)c3C#N)C1)C2`, the GI50 in the experiment on UACC-257, in the experiment with SF-539, in the experiment with TK-10, with NCI-H226, in the experiment with OVCAR-5 and with T47D was > 100 µM (inactive) in each case. Also, the GI50 with NCI/ADR-RES, in the experiment on MDA-MB-435, with SF-268, with EKVX, with HOP-92 and with SNB-75 was > 100 µM (inactive) in each case. Further, the GI50 in the experiment on MOLT-4, in the experiment on BT-549, with K562, with SK-OV-3, in the experiment with COLO 205 and with RXF 393 was > 100 µM (inactive) each time. In addition, the GI50 with MDA-MB-231 and in the experiment with SK-MEL-5 was > 100 µM (inactive) throughout.

As for `COc1ccc(Nc2c(C#N)c3n(c4ccccc24)c2ccccc2[n+]3C)cc1OC`, the GI50 with UACC-257 is 3.78 µM (inactive); in the experiment on SF-539, 1.84 µM (inactive); in the experiment with TK-10, 2.56 µM (inactive); in the experiment on NCI-H226 it was 3.05 µM (inactive); with OVCAR-5 it was 2.25 µM (inactive); in the experiment with T47D, 6.05 µM (inactive). In addition, the GI50 is 2.71 µM (inactive) with NCI/ADR-RES; 3.73 µM (inactive) in the experiment with MDA-MB-435; 1.76 µM (inactive) in the experiment on SF-268; 2.93 µM (inactive) with EKVX; 9.44 µM (inactive) in the experiment on HOP-92; 3.43 µM (inactive) in the experiment with SNB-75. For the same compound, the GI50 in the experiment on MOLT-4 was 1.68 µM (inactive); in the experiment with BT-549 it was 7.33 µM (inactive); with K562 it was 2.33 µM (inactive); in the experiment on SK-OV-3 it was 5.14 µM (inactive); in the experiment with COLO 205, 2.19 µM (inactive); with RXF 393, 2.82 µM (inactive). In addition, the GI50 is 1.73 µM (inactive) in the experiment with MDA-MB-231 and 3.49 µM (inactive) in the experiment on SK-MEL-5.

For `N#CC(C(=O)c1cccnc1Cl)c1nc2cc(C(F)(F)F)ccc2s1` (stereo not given), the GI50 in the experiment with UACC-257 was 75 µM (inactive); with SF-539, 99.3 µM (inactive); with TK-10 it was 55.5 µM (inactive); in the experiment on NCI-H226, 44.2 µM (inactive); with OVCAR-5 it was 33.9 µM (inactive); in the experiment on T47D it was > 100 µM (inactive). The GI50 in the experiment on NCI/ADR-RES was 65.5 µM (inactive); in the experiment with MDA-MB-435, 47.2 µM (inactive); in the experiment on SF-268, 64.9 µM (inactive); in the experiment on EKVX it was 64.9 µM (inactive); in the experiment on HOP-92, 12.4 µM (inactive); in the experiment on SNB-75, 25.3 µM (inactive). The GI50 in the experiment on MOLT-4 is > 100 µM (inactive); with BT-549, 37.4 µM (inactive); in the experiment with K562, 60.5 µM (inactive); in the experiment on SK-OV-3, 62.7 µM (inactive); with COLO 205, 44.2 µM (inactive); with RXF 393 it was 42.3 µM (inactive). The GI50 was 54 µM (inactive) in the experiment with MDA-MB-231 and > 100 µM (inactive) with SK-MEL-5.
